For 11 compounds, GI50 and TGI results are on record in PubChem BioAssay (NCI).

Test systems include COLO 205 colon; HT29 colon; LOX IMVI melanoma; M14 melanoma; MDA-MB-435; SF-295 CNS; SK-MEL-5 melanoma; SNB-19 CNS; UACC-62 melanoma; UO-31 renal.
Holding throughout (experiment): NCI tumour cell line growth inhibition, 48 h

Several values for one entry are separate records, joined by “and”; a condition that tells them apart may be missing. Identical values can stand only once.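 Protocol summary: plate cells (96-well), add compound at 5 concentrations, incubate 48 h, interpolate endpoints linearly. At the GI50, growth is halved. TGI: concentration producing complete growth inhibition.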

Turning to `COC(=O)Nc1nc2ccc(C(=O)c3ccc(F)cc3)cc2[nH]1`, the GI50 in the test on COLO 205 colon was 152 nM; in the test with HT29 colon, 78.5 nM; with LOX IMVI melanoma it was 762 nM; in the test on M14 melanoma, 173 nM; with MDA-MB-435, 33.5 nM; in the test with SF-295 CNS, 94 nM. For the same compound, the GI50 in the test on SK-MEL-5 melanoma was 242 nM; with SNB-19 CNS, 322 nM; in the test on UACC-62 melanoma, 199 nM; in the test with UO-31 renal, 2290 nM. Besides, the TGI in the test on COLO 205 colon was 554 nM; in the test with HT29 colon, over 100000 nM; in the test with LOX IMVI melanoma it was over 100000 nM; with M14 melanoma, over 100000 nM; with MDA-MB-435, 155 nM; with SF-295 CNS it was 966 nM. The TGI is over 24200 nM in the test on SK-MEL-5 melanoma, 15400 nM with SNB-19 CNS, 17800 nM in the test on UACC-62 melanoma and over 100000 nM with UO-31 renal.

On to `COc1ccc(/C=C/C(=O)/C=C(O)/C=C/c2ccc(OC)c(OC)c2)cc1OC`, for which the GI50 is 34400 nM in the test on COLO 205 colon; 3640 nM in the test with HT29 colon; 2540 nM with LOX IMVI melanoma; 5880 nM in the test on M14 melanoma; 3320 nM with MDA-MB-435; 6360 nM with SF-295 CNS. In addition, the GI50 in the test on SK-MEL-5 melanoma was 3010 nM; in the test with SNB-19 CNS it was 28000 nM; in the test on UACC-62 melanoma, 10800 nM; in the test with UO-31 renal, 5270 nM. Besides, the TGI in the test on COLO 205 colon is over 100000 nM; in the test on HT29 colon, 22300 nM; in the test with LOX IMVI melanoma it was 17900 nM; in the test on M14 melanoma, 27700 nM; with MDA-MB-435, over 100000 nM; in the test with SF-295 CNS it was over 100000 nM. Moreover, the TGI was 12700 nM with SK-MEL-5 melanoma, over 100000 nM in the test with SNB-19 CNS, 38300 nM in the test with UACC-62 melanoma and over 100000 nM in the test on UO-31 renal.

In the case of `Cn1c(=O)c(Oc2ccc(F)cc2F)cc2cnc(NCC(C)(C)O)nc21`, the GI50 with COLO 205 colon, in the test with HT29 colon, with LOX IMVI melanoma, in the test with M14 melanoma, with MDA-MB-435 and in the test with SF-295 CNS was over 25000 nM in each case. Besides, the GI50 in the test with SK-MEL-5 melanoma, in the test with SNB-19 CNS, with UACC-62 melanoma and with UO-31 renal was over 25000 nM throughout. Besides, the TGI in the test with COLO 205 colon, in the test with HT29 colon, with LOX IMVI melanoma, with M14 melanoma, in the test on MDA-MB-435 and with SF-295 CNS was over 25000 nM each time. Moreover, the TGI in the test with SK-MEL-5 melanoma, in the test with SNB-19 CNS, with UACC-62 melanoma and in the test with UO-31 renal was over 25000 nM throughout.

Turning to `O=c1/c(=C\c2ccc(Br)cc2)sc2n1C(c1ccc(Br)cc1)C1=C(N=2)c2ccc3ccccc3c2OCC1` (centres undefined), the GI50 in the test on COLO 205 colon, with HT29 colon, in the test with LOX IMVI melanoma, with M14 melanoma, in the test on MDA-MB-435 and in the test with SF-295 CNS was over 100000 nM each time. Also, the GI50 with SK-MEL-5 melanoma, with SNB-19 CNS, in the test with UACC-62 melanoma and in the test on UO-31 renal was over 100000 nM each time. Moreover, the TGI with COLO 205 colon, in the test with HT29 colon, in the test on LOX IMVI melanoma, in the test on M14 melanoma, in the test on MDA-MB-435 and in the test with SF-295 CNS was over 100000 nM throughout. Further, the TGI in the test on SK-MEL-5 melanoma, with SNB-19 CNS, in the test on UACC-62 melanoma and in the test on UO-31 renal was over 100000 nM each time.

On to `COc1c(B(O)O)cccc1-c1nc2c(F)cc3n[nH]c(C)c3c2c2c1CCCC2`, for which the GI50 in the test on COLO 205 colon is 1510 nM; in the test on HT29 colon, 1950 nM; in the test with LOX IMVI melanoma, 688 nM; in the test with M14 melanoma, 2280 nM; with MDA-MB-435 it was 1860 nM; in the test with SF-295 CNS, 1280 nM. For the same compound, the GI50 with SK-MEL-5 melanoma is 932 nM; in the test on SNB-19 CNS it was 1170 nM; in the test with UACC-62 melanoma, 1550 nM; in the test with UO-31 renal, 225 nM. Also, the TGI was 5260 nM with COLO 205 colon; over 50000 nM in the test with HT29 colon; 4140 nM with LOX IMVI melanoma; 8930 nM with M14 melanoma; over 50000 nM with MDA-MB-435; over 40600 nM in the test with SF-295 CNS. Also, the TGI is 2960 nM in the test on SK-MEL-5 melanoma, over 50000 nM in the test with SNB-19 CNS, 8390 nM with UACC-62 melanoma and 3070 nM with UO-31 renal.

Take `CC(=O)ON=C1C=CC(=C(C#N)c2ccccc2)C=C1`: the GI50 with COLO 205 colon is 6020 nM; in the test on HT29 colon, 3030 nM; in the test with LOX IMVI melanoma it was 393 nM; in the test with M14 melanoma, 1890 nM; in the test with MDA-MB-435 it was 283 nM; in the test with SF-295 CNS, 1830 nM. Moreover, the GI50 was 2360 nM with SK-MEL-5 melanoma, 11500 nM with SNB-19 CNS, 3780 nM in the test on UACC-62 melanoma and 576 nM in the test on UO-31 renal. In addition, the TGI was determined as 19300 nM in the test on COLO 205 colon; 12900 nM in the test with HT29 colon; 5580 nM with LOX IMVI melanoma; 9900 nM with M14 melanoma; 2280 nM with MDA-MB-435; 12700 nM in the test on SF-295 CNS. The TGI is 17700 nM in the test on SK-MEL-5 melanoma, over 57500 nM in the test with SNB-19 CNS, 25700 nM in the test on UACC-62 melanoma and 15600 nM with UO-31 renal.

Turning to `Fc1ccc(Nc2nc3nonc3nc2Nc2ccc(I)cc2)cc1`, the GI50 in the test with COLO 205 colon was 208 nM; in the test with HT29 colon, 303 nM; in the test on LOX IMVI melanoma, 349 nM; in the test with M14 melanoma it was 289 nM; in the test with MDA-MB-435, 276 nM; in the test with SF-295 CNS it was 214 nM. Moreover, the GI50 with SK-MEL-5 melanoma was 147 nM; in the test on SNB-19 CNS, 275 nM; in the test on UACC-62 melanoma, 142 nM; with UO-31 renal it was 156 nM. The TGI in the test with COLO 205 colon amounted to 550 nM; in the test on HT29 colon, 10300 nM; with LOX IMVI melanoma, 1440 nM; in the test with M14 melanoma it was 2860 nM; in the test on MDA-MB-435, 10800 nM; in the test on SF-295 CNS it was 792 nM. Further, the TGI in the test with SK-MEL-5 melanoma is 325 nM; in the test on SNB-19 CNS it was 15900 nM; in the test on UACC-62 melanoma, 2160 nM; in the test on UO-31 renal, 858 nM.

As to `CCCCOC(=O)c1c(C)[nH]c(/C=C2\N=C(c3ccc[nH]3)C=C2OC)c1C`, the GI50 with COLO 205 colon was 274 nM; with HT29 colon, 41 nM; with LOX IMVI melanoma, 29.6 nM; in the test on M14 melanoma, 171 nM; with MDA-MB-435 it was 123 nM; in the test on SF-295 CNS, 253 nM. The GI50 with SK-MEL-5 melanoma is 100 nM; in the test on SNB-19 CNS, 1180 nM; in the test with UACC-62 melanoma, 127 nM; in the test on UO-31 renal, 137 nM. The TGI in the test with COLO 205 colon was determined as 1670 nM; in the test with HT29 colon it was 1720 nM; in the test with LOX IMVI melanoma, 102 nM; with M14 melanoma it was 2010 nM; in the test on MDA-MB-435 it was 1740 nM; with SF-295 CNS it was 1320 nM. The TGI was 265 nM in the test on SK-MEL-5 melanoma, over 56100 nM in the test on SNB-19 CNS, 339 nM with UACC-62 melanoma and 337 nM in the test on UO-31 renal.

For `CC(=O)N[C@@H](Cc1ccc(OP(=O)(O)O)cc1)C(=O)N[C@H]1CCC(=O)N2CCC[C@@H](C(=O)NC3CCc4ccccc43)N2C1=O` (some centres undefined), the GI50 in the test with COLO 205 colon, in the test with HT29 colon, in the test with LOX IMVI melanoma, in the test on M14 melanoma, in the test with MDA-MB-435 and in the test with SF-295 CNS was over 25000 nM throughout. In addition, the GI50 with SK-MEL-5 melanoma, in the test on SNB-19 CNS, with UACC-62 melanoma and in the test with UO-31 renal was over 25000 nM throughout. In addition, the TGI in the test on COLO 205 colon, in the test with HT29 colon, in the test on LOX IMVI melanoma, in the test on M14 melanoma, in the test with MDA-MB-435 and with SF-295 CNS was over 25000 nM each time. In addition, the TGI in the test with SK-MEL-5 melanoma, in the test on SNB-19 CNS, in the test on UACC-62 melanoma and with UO-31 renal was over 25000 nM throughout.

Regarding `Cc1cnc(-c2ccc(-c3ccc(NC(=O)Nc4c(F)cc(F)cc4F)cc3F)c3c2C(=O)NC3)[nH]1`, the GI50 was under 10 nM with COLO 205 colon; 431 nM and 359 nM in the test on HT29 colon; 97.3 nM and 386 nM in the test on LOX IMVI melanoma; 39.2 nM and 211 nM in the test with M14 melanoma; 483 nM in the test with MDA-MB-435; 852 nM and 2090 nM with SK-MEL-5 melanoma. For the same compound, the GI50 was 2000 nM and 2510 nM in the test with SNB-19 CNS; 140 nM and 223 nM in the test with UACC-62 melanoma; 594 nM and 1460 nM with UO-31 renal. Besides, the TGI in the test with COLO 205 colon was 13200 nM and 27300 nM; in the test with HT29 colon, 2660 nM and 2450 nM; with LOX IMVI melanoma, 4220 nM and 14500 nM; in the test on M14 melanoma it was 1990 nM and 17100 nM; in the test with MDA-MB-435, 4290 nM; in the test on SF-295 CNS, 18800 nM and 18400 nM. For the same compound, the TGI in the test with SK-MEL-5 melanoma is 9160 nM and 14100 nM; in the test on SNB-19 CNS, 14400 nM and 15500 nM; with UACC-62 melanoma it was 2100 nM and 2390 nM; in the test on UO-31 renal, over 100000 nM.

Turning to `COCCn1c2c([n+](Cc3cnccn3)c1C)C(=O)c1ccccc1C2=O`, the GI50 in the test with COLO 205 colon is 23.5 nM; in the test with HT29 colon, 30.9 nM; with LOX IMVI melanoma, under 10 nM; with M14 melanoma, under 12.6 nM; in the test with MDA-MB-435, under 10 nM; in the test with SF-295 CNS it was 27 nM. In addition, the GI50 in the test with SK-MEL-5 melanoma is under 10 nM; in the test with SNB-19 CNS it was under 10 nM; with UACC-62 melanoma it was 18.5 nM; with UO-31 renal, 844 nM. The TGI was 62.6 nM in the test with COLO 205 colon; 111 nM in the test on HT29 colon; under 11.8 nM in the test on LOX IMVI melanoma; 50.5 nM with M14 melanoma; under 10 nM with MDA-MB-435; 84.3 nM in the test with SF-295 CNS. The TGI is 16.2 nM in the test on SK-MEL-5 melanoma, 15.3 nM in the test on SNB-19 CNS, 45.4 nM in the test with UACC-62 melanoma and over 78500 nM in the test on UO-31 renal.
